How the values were obtained:
[1] = method code SF-AS, from DOI: 10.1248/cpb.32.4994, PMID: 6534548
[2] = method code AS, from DOI: 10.1248/cpb.32.4994, PMID: 6534548
[3] = method code SF-AQ, from DOI: 10.1248/cpb.32.4994, PMID: 6534548

Row | logP [1] | Compound | other results
1 | 3.54 | O=C(Cc1ccccc1)Nc1ccc(Cl)cc1 | 
2 | 3.05 | CC(=O)N(c1ccccc1)c1ccc(C)cc1 | 
3 | 2.75 | CC(=O)c1ccc(NC(=O)Cc2ccccc2)cc1 | 
4 | 2.86 | O=C(Cc1ccccc1)Nc1ccc(F)cc1 | 
5 | 1.59 | Nc1cccc(NC(=O)Cc2ccccc2)c1 | 
6 | 2.31 | CNc1cccc(NC(=O)Cc2ccccc2)c1 | 
7 | 2.32 | CS(=O)(=O)Oc1cccc(NC(=O)Cc2ccccc2)c1 | 
8 | 2.75 | N#Cc1cccc(NC(=O)Cc2ccccc2)c1 | 
9 | 2.93 | O=C(Cc1ccccc1)Nc1cccc([N+](=O)[O-])c1 | 
10 |  | O=C(Cc1ccccc1)Nc1ccc(Br)cc1 | logP [2]: 3.7
11 | 3.1 | O=C(Cc1ccccc1)Nc1cccc(F)c1 | 
12 | 3.14 | Cc1cccc(NC(=O)Cc2ccccc2)c1 | 
13 | 1.82 | O=C(Cc1ccccc1)Nc1ccc(O)cc1 | 
14 | 3.91 | O=C(Cc1ccccc1)Nc1cccc(I)c1 | 
15 |  | CCc1cccc(N(C(C)=O)c2ccccc2)c1 | logP [3]: 3.47
16 | 2.49 | COc1ccc(NC(=O)Cc2ccccc2)cc1 | 
17 | 2.22 | O=C(Cc1ccccc1)Nc1cccc(O)c1 | 
18 | 2.59 | CCNc1cccc(NC(=O)Cc2ccccc2)c1 | 
19 | 2.86 | COc1cccc(NC(=O)Cc2ccccc2)c1 | 
20 | 2.37 | CC(=O)Oc1cccc(NC(=O)Cc2ccccc2)c1 | 
21 | 2.62 | CC(=O)c1cccc(NC(=O)Cc2ccccc2)c1 | 
22 | 3.61 | O=C(Cc1ccccc1)Nc1cccc(Cl)c1 | 
23 | 3.77 | O=C(Cc1ccccc1)Nc1cccc(Br)c1 | 
